Test results as given in US8809372B2, “Pyridine derivatives” (Endo Pharmaceuticals, Inc., priority 2011, dated 2014).
Where two headings read alike, the source gives them in different places.

Key:
[1] = system: testosterone production in H295R cells; experiment: Cell-based functional assay for testosterone production; parameters: species or system human
Description: Cell-Based Functional Assay for Testosterone Production
H295R cells (ATCC Number CRL-2128) were subcultured, seeded (30,000 cells per well in a poly-d lysine plate) and left overnight at 37° C. The next day (after approximately 24 hours), the media were removed and 200 μL fresh media were added. Then, 50 μL of serially diluted compounds was added from a 5× plate. The serial dilution in the 100× plate (in DMSO) and the stamping of a 5× plate (in media) from the 100× plate were carried out using a TECAN liquid handling device. The plate was incubated at 37° C. for 72 hours. After incubation, the media was removed, diluted 5 to 10 times with calibration diluent RD5-48, and the assay performed as per manufacturer's protocol (Parameter Testosterone Assay, Cat. No. KGE010, R&D systems; http://www.mdsystems.com/pdf/KGE010.pdf).

[2] = system: prostate and seminal vesicle weights; experiment: In vivo reduction of prostate and seminal vesicle weights; parameters: species or system rat; conditions: male rats
Description: In vivo Reduction of Prostate and Seminal Vesicle Weights Male rats aged 8 to 10 weeks old (5 animals per group) were dosed orally with compounds once or twice a day at 12-hour intervals for 14 days. On day 14 the animals were euthanized and organs were surgically removed for wet weight determination including the prostate, seminal vesicles and testes.

serum testosterone level = experiment: In vivo inhibition of testosterone production; parameters: species or system rat; conditions: male rats, vs vehicle-dosed controls
Description: In vivo Inhibition of Testosterone Production
Male rats aged 8 to 10 weeks old were dosed orally with compounds at 10 or 30 mg/kg. Blood samples were drawn at 0.5, 3, 8, and 24 hours and were processed to plasma samples. Samples were analyzed for compound levels by LC-MS/MS method and for testosterone levels with an ELISA performed as per manufacturer's protocol (Parameter Testosterone Assay, Cat. No. KGE010, R&D systems; http://www.mdsystems.com/pdf/KGE010.pdf). The serum testosterone level was calculated from standards using GraphPad® Prism software and % inhibition at a given time was calculated by comparing the testosterone level in vehicle control animals at the same time of day.

[3] = target: T1, human CYP17 in LNCap-CYP17 cells (Homo sapiens, UniProt P05093); experiment: Cell-based human CYP17 inhibition assay, LNCap-CYP17 cells; conditions: 16 hours
T1 construct: expressed in transfected cells
T1 sequence (P05093 1-508): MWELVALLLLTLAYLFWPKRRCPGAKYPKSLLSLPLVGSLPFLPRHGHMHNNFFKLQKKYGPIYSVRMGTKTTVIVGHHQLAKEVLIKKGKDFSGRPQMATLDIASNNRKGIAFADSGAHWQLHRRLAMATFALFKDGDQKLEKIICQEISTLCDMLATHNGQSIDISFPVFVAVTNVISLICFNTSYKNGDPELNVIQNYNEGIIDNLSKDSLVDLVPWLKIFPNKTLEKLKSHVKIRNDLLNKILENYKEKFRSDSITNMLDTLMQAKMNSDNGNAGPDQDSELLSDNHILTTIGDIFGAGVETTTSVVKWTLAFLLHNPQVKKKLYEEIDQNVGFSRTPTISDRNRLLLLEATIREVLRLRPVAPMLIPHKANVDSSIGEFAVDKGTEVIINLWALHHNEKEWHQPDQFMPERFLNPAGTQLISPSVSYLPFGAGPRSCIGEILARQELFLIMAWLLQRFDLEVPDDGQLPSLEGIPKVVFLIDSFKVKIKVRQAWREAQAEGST
Description: Cell-Based Human CYP17 Inhibition Assay
1. H295R Adrenocortical Carcinoma Cells and Growth Media: The media for the H295R Adrenocortical carcinoma cells [NCI-H295A, ATCC Number CRL-2128, American Type Culture Collection, Manassas, Va., US] (500 mL) was a DMEM:F12 Mix 1:1 with 5% (2 mL) BD Nu Serum; 1% (5 mL) ITS+Premix [BD Biosciences] and 1% Penstrep. 2. LNCap-CYP17 Cells and Growth Media: Full length hCYP17a1 gene (NCBI Reference Sequence: NM_000102.3) was cloned in pcDNA3.1(+) vector between HindIII and XhoI site. The pcDNA3.1(+) vector contains the Neomycin resistance gene and was used for selection of stable cell line. The hCYP17a1 containing pcDNA3.1(+) was transfected into LNCap cells to create the LNCap-CYP17 cell line. The media for the LNCaP-CYP17 cells was RPMI 1640, 10% FBS, 1% PenStrep, Geneticin 400 μg/mL.
The H295R cells or LNCaP-hCYP17 cells were subcultured and 30,000 cells per well were seeded in a poly-d lysine plate and incubated overnight at 37° C. The next day the media was removed and 200 μL of fresh media with ^3H3-17α-hydroxy-pregnenolone (1:1000) was added. 50 μL of serially diluted compounds from a 5× plate (5 times the final desired concentration) was added. […]
The plates were incubated overnight (16 hours) at 37° C. […] Following the incubation for 30 minutes, readings for the radiotracer were taken using a Microbeta® trilux.

[4] = Homo sapiens, NCI-H295R, 72 h, read-out: Testosterone (human H295R adrenal cells), H295R cells, 72 hours
[5] = 30 mg/kg orally twice a day for 14 days
[6] = 3-8 hours after a 30 mg/kg oral dose
[7] = Homo sapiens, NCI-H295R, 72 h, read-out: Testosterone (human H295R adrenal cells)
[8] = read-out: Testosterone (human H295R adrenal cells), H295R cells, 72 hours
[9] = 30 mg/kg orally once a day for 14 days

SMILES: CC(O)(c1ccncc1)c1cnc(-c2ccc(F)cc2)s1 (single isomer, unassigned) [Example 8, 1-(2-(4-fluorophenyl)thiazol-5-yl)-1-(pyridin-4-yl)ethanol]
- IC50 [1, 4]: 50 to 200 nM

SMILES: Cn1cc(-c2ccc(C(C)(O)c3ccncc3)s2)ccc1=O (single isomer, unassigned; (-)) [Example 17, (−)-5-(5-(1-hydroxy-1-(pyridin-4-yl)ethyl)thiophen-2-yl)-1-methylpyridin-2(1H)-one]
- reduction of prostate weight [2, 5]: about 50%
- decrease of serum testosterone levels (serum testosterone level; [6]): 30-60%

SMILES: CCC(O)(c1ccncc1)c1cnc(-c2ccc(F)cc2)s1 (centres unmarked) [Example 4, 1-(2-(4-fluorophenyl)-thiazol-5-yl)-1-(pyridin-4-yl)propan-1-ol]
- IC50 [1, 4]: < 50 nM

SMILES: COc1ccc(-c2ccc(C(C)(O)c3ccncc3)nc2)cc1 (racemic) [Example 1, 1-(5-(4-Methoxyphenyl)pyridin-2-yl)-1-(pyridin-4-yl)ethanol]
- IC50 [3]: 201 to 10000 nM
- IC50 [1, 7]: 50 to 200 nM

SMILES: COc1ccc(-c2ccc(C(C)(O)c3ccncc3)nc2)cc1 (single isomer, unassigned) [Example 2, 1-(5-(4-methoxyphenyl)-pyridin-2-yl)-1-(pyridin-4-yl)ethanol]
- IC50 [1, 8]: 50 to 200 nM

SMILES: CC(O)(c1ccncc1)c1cnc(-c2ccc(F)cc2)s1 (racemic) [Example 7, 1-(2-(4-Fluorophenyl)thiazol-5-yl)-1-(pyridin-4-yl)ethanol]
- reduction of prostate weight [2, 9]: about 50%
- reduction of seminal vesicle weight [2, 9]: about 60%
- decrease of serum testosterone levels (serum testosterone level; 3-8 hours after a 10 mg/kg oral dose): 70-85%
- melting point: 229 to 232 °C
- IC50 [1, 7]: < 50 nM

SMILES: COc1ccc(-c2ccc(C(C)(O)c3ccncc3)nc2)cc1 (single isomer, unassigned) [Example 3, 1-(5-(4-methoxyphenyl)-pyridin-2-yl)-1-(pyridin-4-yl)ethanol]
- IC50 [1, 4]: 50 to 200 nM

SMILES: CC(O)(c1ccncc1)c1ncc(-c2ccc(F)cc2)s1 (centres unmarked) [Example 14, 1-(5-(4-Fluorophenyl)thiazol-2-yl)-1-(pyridin-4-yl)ethanol]
- decrease of serum testosterone levels (serum testosterone level; [6]): 60-80%

SMILES: CC(O)(c1ccncc1)c1nc(-c2ccc(F)cc2)no1 (single isomer, unassigned; (+)) [Example 36, (+)-1-(3-(4-fluoro-phenyl)-1,2,4-oxadiazol-5-yl)-1-(pyridin-4-yl)ethanol]
- reduction of prostate weight [2, 5]: about 50%

SMILES: CC(O)(c1ccncc1)c1cnc(-c2ccc(F)cc2)s1 (single isomer, unassigned) [Example 9, 1-(2-(4-fluorophenyl)thiazol-5-yl)-1-(pyridin-4-yl)ethanol]
- IC50 [1, 8]: < 50 nM

SMILES: CC(O)(c1ccncc1)c1nc(-c2ccc(F)cc2)no1 (centres unmarked) [Example 34, 1-(3-(4-Fluorophenyl)-1,2,4-oxadiazol-5-yl)-1-(pyridin-4-yl)ethanol]
- reduction of prostate weight [2, 5]: about 50%
